Experimental data as given in EP0651636B1, “CHEMOTHERAPY FOR CANCER” (THE JOHNS HOPKINS UNIVERSITY, priority 1992, dated 1994).
Values after ≈ are worked out from the molar mass of the structure shown. Like-named read-outs stand apart in the source and are kept apart here.

How the values were obtained:
ZR-75-1 cells [1] = assay: In vitro growth inhibition assay (crystal violet) with oleic acid supplement; format: cell-based, human; conditions: for effect on carcinoma cells: standard in vitro growth inhibition assays
Method: (§1) In vitro growth inhibition assays for OA-519 inhibition were performed using ZR-75-1 cells or normal human fibroblasts which were grown to confluence, and then 25,000 cells were plated in 1:1 conditioned:fresh medium (RPMI with 10% fetal calf serum) supplemented at a physiologic level to 0.5 millimolar oleic acid bound to previously delipidized bovine serum albumin. Cells were allowed to attach and grow overnight. At time 0, drugs diluted in RPMI medium with 10% fetal calf serum were added to achieve the following concentrations: 50 µg/ml to 0.01 µg/ml with serial two-fold dilutions including no drug and empty well controls. Each concentration was performed in quadruplicate and time points were taken at 4, 8, 24, and 48 h. After drug treatment, cells were stained with crystal violet, solubilized in SDS, and read on a Molecular Diagnostics automated plate reader at 570 nm.

normal human fibroblasts = assay: as above; format: cell-based; conditions: for effect on normal human fibroblasts: standard in vitro growth inhibition assays
Method: as §1

[2] = system: SK-BR-3 human mammary carcinoma cells; assay: Crystal violet growth inhibition assay, 48 hour exposure; format: cell-based
Method: (§2) This experiment was performed using the crystal violet growth inhibition assay. Cells with varying degrees of FAS activity were plated at 5000 cells per well in 96 well plates in RPMI-1640 with 10% heat-inactivated fetal bovine serum. After 72 hours of incubation in a humidified 95% air: 5% CO2 atmosphere, varying concentrations (0-500 µg/ml) of TOFA (5-tetradecyloxyl)-2-furoic acid were added and cultures were re-incubated for 48 hours. Plates were then removed and stained with crystal violet as described. Absorbance readings were averaged for each concentration of agent (n=4), control (n=8), and background (n=8). Background readings were subtracted. The concentration of TOFA is plotted against growth (as % of control growth) in Figure 15.
In these experiments, cells were plated at 5000 cells per well in a 96-well microtiter plate and maintained in RPMI-1640 with 10% heat-inactivated fetal bovine serum for 72 hours. Next, the compounds indicated in Table 4 were added, and cells were incubated for an additional 48 hours. Growth inhibition was then measured using the crystal violet method.

condensing enzyme = condensing enzyme (Saccharomyces cerevisiae, UniProt P19097); conditions: report of Morisaki, et. al.; cited from earlier work
[3] = target: T1, OA-519 fatty acid synthase (Homo sapiens, UniProt P49327); assay: Spectrophotometric fatty acid synthase assay (NADPH oxidation at 340 nm); format: biochemical
T1 construct: endogenous in cells; host or cells: ZR-75-1 breast carcinoma cell line (protein purified from the lysate)
Method: Spectrophotometric fatty acid synthase assay: The fatty acid synthase assay was performed in a total volume of 451 µl with the following components: 18.88 µg of purified OA-519 fatty acid synthase from the ZR-75-1 breast carcinoma cell line as described in Example 2, 25 nanomoles acetyl-CoA, 75 nanomoles NADPH, and 50 µl of 1 molar potassium phosphate, pH 6.6 at 25°C. The substrate malonyl-CoA was added at concentrations of 0.5 and 0.6 micromolar in the presence of 0, 9.9, 148, 198, or 397 micromolar cerulenin. HPLC grade water was added to achieve a final volume of 451 µl for all assays.
The enzyme, NADPH, acetyl-CoA, phosphate, cerulenin, and water were combined, vortexed, and incubated in a Beckman DU 650 spectrophotometer at 37°C. Oxidation of NADPH was monitored at 340 nm without substrate to determine background for 2 min. Malonyl-CoA was then added to the reaction cuvette, mixed, and incubated at 37°C while NADPH oxidation was determined at 10 second intervals at 340 nm in the spectrophotometer for a total of 2 min. All determinations were performed in duplicate.
Results: The spectrophotometric data was plotted according to Dixon (Dixon, M., Biochem. J., 55:170-171, 1953) which graphs inhibitor concentration versus 1/v for each given substrate concentration. […]

viral HIV protease = viral HIV protease (Human immunodeficiency virus type 1 group M subtype B, UniProt P04585); conditions: cited from earlier work
ZR-75-1 cells [4] = assay: Oleate rescue from cerulenin growth inhibition; format: cell-based, human; conditions: 10 µg/ml cerulenin for 24 hours; 1.5 mM oleate
Method: ZR-75-1 cells (5,000 per well) were plated in 96 well microtiter plates in medium supplemented with 0, 0.5, 1.0 or 1.5 mM oleate bound to delipidized bovine serum albumin at a molar ration of 4:1. After 18 hours incubation, cerulenin was added at a dose of 10 µg/ml. Cells were stained and assayed as in Example 10 after 24 hours (Figure 17, upper line) or 48 hours (lower line). The middle line of Figure 17 represents cells which were re-fed at 24 hours with medium containing the respective oleate concentration without cerulenin and assayed after a 48 hour total incubation. Error bars represent standard error of the mean.

MCF-7 cells [5] = assay: Clonogenic assay; format: cell-based, human; conditions: 10 µg/ml; exposure time 24 hours
Method: Clonogenic assay: One million cells were plated in 25 cm sq. flasks. […] Cells were then trypsinized to a single cell suspension and plated in 16 mm dishes at 1000 or 500 cells per dish in triplicate. Following 3 days incubation for ZR-75-1 and MCF-7 cells, and 7 days for SKBR3 cells, colonies were counted and expressed as the percentage of the untreated control.

H125 lung carcinoma line = assay: Growth inhibition assay without oleic acid, single 24 h time point; format: cell-based; conditions: no oleic acid, line with 11.6 picomoles per minute enzyme activity
Method: as §1
Growth Inhibition Assay: Anti-proliferative activity of cerulenin for each cell line was determined using the same assay and drug concentrations described in Example 5, except that no oleic acid was added and a single 24 h time point was taken.

TSU-pr1 = assay: Population doubling assay, viable cell count (trypan blue); format: cell-based; conditions: Homo sapiens, 48-hour exposure, relative to untreated cultures, read-out: concentration giving 50% inhibition of population doubling
Method: (§3) TSU-pr1 and Dupro-1 cell lines were plated in RPMI-1640 with 10% fetal bovine serum at 3 X 10^5 and 1 X 10^5 cells respectively/T25 flask in a humidified atmosphere of 95% air: 5% CO2. After 24 hours, initial plating density was measured. In addition, media was replaced (control) or cerulenin was added at 2.5-10 µg/ml to duplicate cultures. Forty-eight hours later, cells were trypsinized and viable cells (trypan blue excluding) counted. The number of population doublings was estimated.

Dupro-1 = assay: as above; format: cell-based; conditions: Homo sapiens; 48-hour exposure; relative to untreated cultures; read-out: concentration giving 50% inhibition of population doubling
Method: as §3

MCF-7 cells [6] = assay: 14C-acetate incorporation into cholesterol; format: cell-based, human; conditions: cerulenin 0, 2.5, 5.0 or 10.0 µg/ml; 6 hours
Method: (§4) Measurement of endogenous fatty acid incorporation into acyl-glycerides: For each cell type, 200,000 cells were plated in triplicate for non-polar and polar lipid analysis. Following overnight growth, each well of cells was incubated for 2 hours with 1 µCi ^14C acetate. ^14C-labeled lipids were extracted as above, and dried under N2. For analysis of non-polar lipids, samples were resuspended in 10 ul chloroform and spotted on silica gel N-HR (Brinkmann) and chromatographed in hexane:ethyl ether:acetic acid, 65:25:4 by volume. Cholesterol, palmitic acid, tripalmitin, and cholesterol palmitate (Matreya) were run as controls at 50 µg each. […] 50 µg each of cholesterol, phosphatidyl ethanolamine, lecithin, and lysolecithin (Matreya) were run as controls. ^14C-labeled lipids were detected and quantified using a Bioscan System 2000 imaging scanner with Autochanger 3000. […] Phosphatidylcholine and triglycerides were the predominant acyl-glycerides detected.
(§5) Measurement of endogenous fatty acid incorporation into acyl-glycerides and cholesterol: For each cell type, 200,000 cells were plated in triplicate for non-polar and polar lipid analysis for each drug dose in 24 well plates. […] For the last two hours of cerulenin incubation, 1 µCi of ^14C acetate was added per well. ^14C-labeled lipids were then extracted, chromatographed, and detected as described above. […]

SKBR3 cells = assay: 14C-acetate incorporation into cholesterol; format: cell-based, human; conditions: cerulenin 0, 2.5, 5.0 or 10.0 µg/ml; 6 hours
Method: as §4, §5

[7] = system: six cell lines listed in Table 3; assay: 14C-acetate incorporation into acyl-glycerides; format: cell-based, human; conditions: cerulenin 0, 2.5, 5.0 or 10.0 µg/ml; 6 hours
Method: as §4, §5

SW480 = assay: Crystal violet growth inhibition assay, 48 hour exposure; format: cell-based; conditions: Homo sapiens, read-out: ID50 (the source's name)
Method: as §2

H'27 = assay: as above; format: cell-based; conditions: Homo sapiens, read-out: ID50 (the source's name)
Method: as §2

ZR-75-1 = assay: as above; format: cell-based; conditions: Homo sapiens, read-out: ID50 (the source's name)
Method: as §2

Vero = conditions: cited from earlier work
Hela cells = conditions: cited from earlier work
ZR-75-1 cells [8] = assay: Triacsin-C and cerulenin synergy, crystal violet growth inhibition; format: cell-based; conditions: Homo sapiens, ZR-75-1, 24 h
Method: 96 well microtiter plates were plated with ZR-75-1 cells at 25,000 cells/well and incubated overnight (18 h) at 37° C in 5% CO2. Triacsin-C was added to achieve the following micromolar concentrations in the presence of 0, 2.5, 5.0 or 10.0 µg/ml cerulenin: 50, 25, 12.5, 6.2, 3.1, 1.6, 0.8, 0.4, 0.2, 0.1 and 0. Each concentration was performed in quadruplicate. Cells were incubated for 24 hours, washed in PBS, solubilized in 1% SDS, stained with 0.2% crystal violet in 2% ethanol, and read at 490 nm on a Molecular Diagnostics plate reader.

[9] = target: rat liver acyl-CoA synthetase; conditions: read-out: concentration causing 50% inhibition; cited from earlier work
Raji cells = conditions: cited from earlier work
[10] = SK-BR-3, 48 h, read-out: ID50 (µg/ml)
[11] = SK-BR-3, 48 hours, dose giving 50% reduction of control absorbance, quadruplicate, read-out: ID50 (the source's name)

T1 sequence (P49327 2-2511 limits assumed): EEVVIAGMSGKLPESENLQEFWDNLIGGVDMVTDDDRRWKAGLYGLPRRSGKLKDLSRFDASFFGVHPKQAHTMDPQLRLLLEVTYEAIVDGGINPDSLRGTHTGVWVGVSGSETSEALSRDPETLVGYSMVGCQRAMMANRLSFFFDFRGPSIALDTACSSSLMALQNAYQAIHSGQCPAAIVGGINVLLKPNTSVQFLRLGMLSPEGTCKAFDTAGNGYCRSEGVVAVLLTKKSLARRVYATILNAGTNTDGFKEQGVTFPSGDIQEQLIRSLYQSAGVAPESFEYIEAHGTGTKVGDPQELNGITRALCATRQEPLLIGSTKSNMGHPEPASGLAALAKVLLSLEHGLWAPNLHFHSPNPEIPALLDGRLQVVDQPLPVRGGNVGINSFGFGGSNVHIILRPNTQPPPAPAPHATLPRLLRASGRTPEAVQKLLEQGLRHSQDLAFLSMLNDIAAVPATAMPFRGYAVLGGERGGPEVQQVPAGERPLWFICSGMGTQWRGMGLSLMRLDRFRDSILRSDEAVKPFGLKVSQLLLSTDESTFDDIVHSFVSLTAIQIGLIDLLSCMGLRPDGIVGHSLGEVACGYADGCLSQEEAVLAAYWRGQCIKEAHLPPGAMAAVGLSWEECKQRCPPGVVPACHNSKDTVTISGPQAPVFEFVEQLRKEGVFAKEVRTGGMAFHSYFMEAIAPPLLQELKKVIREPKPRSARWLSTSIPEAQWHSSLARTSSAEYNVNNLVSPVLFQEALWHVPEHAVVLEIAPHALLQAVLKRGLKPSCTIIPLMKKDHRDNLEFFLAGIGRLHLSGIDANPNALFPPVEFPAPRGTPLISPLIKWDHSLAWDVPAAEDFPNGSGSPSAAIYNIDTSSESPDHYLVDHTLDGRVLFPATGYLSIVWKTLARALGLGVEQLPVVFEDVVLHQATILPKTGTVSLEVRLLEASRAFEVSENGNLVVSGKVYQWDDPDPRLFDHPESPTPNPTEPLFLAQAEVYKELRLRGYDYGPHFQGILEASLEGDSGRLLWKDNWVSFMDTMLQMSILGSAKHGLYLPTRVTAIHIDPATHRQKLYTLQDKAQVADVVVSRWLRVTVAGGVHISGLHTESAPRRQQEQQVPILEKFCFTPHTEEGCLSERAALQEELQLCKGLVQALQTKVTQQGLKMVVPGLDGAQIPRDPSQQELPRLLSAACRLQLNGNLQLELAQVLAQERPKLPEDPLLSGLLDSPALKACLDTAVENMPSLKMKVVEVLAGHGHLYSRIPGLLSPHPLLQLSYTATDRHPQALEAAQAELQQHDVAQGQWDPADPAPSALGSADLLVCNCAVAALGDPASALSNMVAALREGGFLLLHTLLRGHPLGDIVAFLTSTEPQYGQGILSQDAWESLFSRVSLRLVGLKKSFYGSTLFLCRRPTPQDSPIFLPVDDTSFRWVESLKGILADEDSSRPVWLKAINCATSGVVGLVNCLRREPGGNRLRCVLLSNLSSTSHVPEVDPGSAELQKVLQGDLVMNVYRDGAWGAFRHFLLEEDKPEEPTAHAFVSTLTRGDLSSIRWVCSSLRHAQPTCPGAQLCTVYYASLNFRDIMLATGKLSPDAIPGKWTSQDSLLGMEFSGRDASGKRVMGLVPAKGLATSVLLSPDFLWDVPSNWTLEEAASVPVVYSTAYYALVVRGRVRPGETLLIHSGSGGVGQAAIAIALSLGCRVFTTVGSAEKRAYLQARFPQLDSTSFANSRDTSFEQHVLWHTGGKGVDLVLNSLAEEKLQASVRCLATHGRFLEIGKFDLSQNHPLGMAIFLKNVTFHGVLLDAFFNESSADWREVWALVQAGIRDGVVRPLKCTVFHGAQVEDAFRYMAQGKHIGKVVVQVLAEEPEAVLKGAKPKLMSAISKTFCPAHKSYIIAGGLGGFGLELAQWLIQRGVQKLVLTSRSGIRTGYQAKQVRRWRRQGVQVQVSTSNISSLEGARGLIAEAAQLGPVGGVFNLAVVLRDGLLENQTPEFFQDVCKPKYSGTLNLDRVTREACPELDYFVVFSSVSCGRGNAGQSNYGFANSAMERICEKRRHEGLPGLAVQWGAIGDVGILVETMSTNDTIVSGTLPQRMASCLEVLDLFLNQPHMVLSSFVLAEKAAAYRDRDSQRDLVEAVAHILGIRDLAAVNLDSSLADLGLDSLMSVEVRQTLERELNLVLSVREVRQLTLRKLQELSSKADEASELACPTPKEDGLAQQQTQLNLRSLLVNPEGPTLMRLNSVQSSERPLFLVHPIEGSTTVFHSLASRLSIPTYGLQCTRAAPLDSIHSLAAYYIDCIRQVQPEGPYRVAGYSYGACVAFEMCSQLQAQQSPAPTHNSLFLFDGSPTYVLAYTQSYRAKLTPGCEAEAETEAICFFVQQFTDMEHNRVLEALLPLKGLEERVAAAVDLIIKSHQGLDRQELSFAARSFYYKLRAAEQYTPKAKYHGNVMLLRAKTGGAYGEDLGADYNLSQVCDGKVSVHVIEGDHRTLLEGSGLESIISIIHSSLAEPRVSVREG

Nc1nc(N)nc(Nc2ccc([As]3SCC(CO)S3)cc2)n1 (centres unmarked) [melarsoprol]
effect on carcinoma cells (ZR-75-1 cells [1]): anti-proliferative | effect on normal human fibroblasts (normal human fibroblasts): little effect

CCC/C(=N\OCC)C1=C(O)CC(CC(C)SCC)CC1=O (centres unmarked) [Sethoxydim]
IC50 [2, 10]: 9.5 µg/mL (≈ 29 µM)

O=C(O)C(=O)CBr [Bromopyruvate]
IC50 [2, 10]: 52 µg/mL (≈ 311 µM)

CCCCCCCCC(=O)C1OC1C(N)=O (centres unmarked) [Tetrahydrocerulenin]
times less potent than cerulenin (condensing enzyme): 80-150 times

C/C=C/C/C=C/CCC(=O)[C@H]1O[C@H]1C(N)=O [cerulenin, (2S) (3R) 2,3-epoxy-4-oxo-7,10 dodecadienoyl amide]
Ki ([3]; for the substrate malonyl-CoA, Dixon plot, enzyme purified from ZR-75-1, read-out: apparent Ki): 32 µM | type of inhibition of OA-519 fatty acid synthase activity ([3]; purified OA-519): non-competitive inhibitor | inhibition at 6.25 µg/mL (ZR-75-1 cells [1]; Homo sapiens, ZR-75-1, cerulenin 6.25 µg/ml, by 48 h, 0.5 millimolar oleic acid, read-out: growth inhibited): > 80% | effect on carcinoma cells (ZR-75-1 cells [1]): anti-proliferative | effect on growth (normal human fibroblasts; cerulenin 6.25 µg/ml, 0.5 millimolar oleic acid): unaffected | effect on normal human fibroblasts (normal human fibroblasts): little effect | concentration at which inhibition occurs (viral HIV protease): 5 mg/mL | reversal of growth inhibition by oleate (ZR-75-1 cells [4]): virtually complete reversal of growth inhibition | IC50 [2, 11]: 3.6 µg/mL (≈ 16.1 µM) | cell kill (MCF-7 cells [5]): greater than three logs of cell kill | growth inhibition (H125 lung carcinoma line): 48% | IC50 (TSU-pr1): 3 to 4 µg/mL (≈ 13.4 to 17.9 µM) | IC50 (Dupro-1): 3 to 4 µg/mL (≈ 13.4 to 17.9 µM) | cholesterol synthesis (MCF-7 cells [6]): mild inhibition | cholesterol synthesis (SKBR3 cells): stimulation | incorporation of 14C-acetate into acyl-glycerides [7]: consistently and significantly inhibited in a dose-related manner

NC(=O)CI [Iodoacetamide]
IC50 [2, 10]: 0.3 µg/mL (≈ 1.62 µM)

CCCCCCCCCCCCCCOc1ccc(C(=O)O)o1 [TOFA, 5 (tetradecyloxy)-2-furoic acid]
IC50 (SW480): 59.8 µg/mL (≈ 184 µM) | IC50 (H'27): 44.7 µg/mL (≈ 138 µM) | IC50 (ZR-75-1): 0.8 µg/mL (≈ 2.47 µM) | IC50 [2, 11]: 4.6 µg/mL (≈ 14.2 µM)

CCC/C=C/C/C=C/C=C/C=NN=NO [Triacsin C, 1-hydroxy-3-(E, E, E-2', 4', 7' - undecatrienylidine) triazene]
growth inhibition (Vero): inhibit growth | growth inhibition (Hela cells): inhibit growth | IC50 (ZR-75-1 cells [8]; cerulenin added at a level approximating its ID50): < 1 µM | IC50 (ZR-75-1 cells [8]; triacsin-C alone, read-out: ID50 (the source's name)): ~15 µM | IC50 [9]: 8.7 µM | concentration causing growth inhibition (Raji cells): 1.0 µM

CCN1C(=O)C=CC1=O [N-ethylmaleimide]
IC50 [2, 10]: 0.9 µg/mL (≈ 7.19 µM)

CC(C)(COP(=O)(O)OP(=O)(O)OC[C@H]1O[C@@H](n2cnc3c(N)ncnc32)[C@H](O)[C@@H]1OP(=O)(O)O)[C@@H](O)C(=O)NCCC(=O)NCCSCC(=O)O [S-carboxymethyl CoA]
IC50 [2, 11]: 61.4 µg/mL (≈ 74.4 µM)

Cc1cc2c(C(C)C)c(O)c(O)c(C=O)c2c(O)c1-c1c(C)cc2c(C(C)C)c(O)c(O)c(C=O)c2c1O [Gossypol]
IC50 [2, 10]: 3.1 µg/mL (≈ 5.98 µM)
